90 compounds from a melting point compilation (Tetko et al.; mined from patent text by program, amines drawn as free bases though some values may be those of a salt) can be followed below.

Broadly, the melting point is the temperature, or range, at which the solid turns liquid. Compound `O=C(O)CC1(c2cccc(F)c2)NC(=O)NC1=O` (stereo not given) showed a melting point of 206 to 208 °C. `CC1CC2(CC3CCC4C5CCC(=O)C5(C)CCC4C13C)OCCO2` (stereo not given) yielded a melting point of 154 °C. Turning to `CCOC(=O)c1cn(C2CC2)c2nc(N3C[C@@H](CN(C)C(=O)C(F)(F)F)[C@@H](F)C3)c(F)cc2c1=O` (relative stereo), the melting point was in the range of 177 to 179 °C. Compound `COc1cc2[nH]c(=O)nc(C)c2c(C)c1OC` displayed a melting point of 78 to 81 °C.

In turn, `O=C(Nc1ccc(C2=CCN(C(=O)Nc3ccc(OCCO)cc3C(F)(F)F)CC2)cc1)Nc1ccccc1F` returned a melting point of 110 to 112 °C. `COc1ccc(CS[C@@H]2C[C@@H](CNCc3ccccc3)N(S(C)(=O)=O)C2)cc1` had a melting point of 63 to 64 °C. The compound `Cc1cccc(NC(=O)NCC(=O)N2[C@@H](C(=O)N(C)c3ccccc3)CC[C@H]2c2ccccc2)c1` (racemic) yielded a melting point of 210 °C. For `CC/C(=C(\c1ccc(/C=C/C(=O)O)cc1)c1ccc(OC(=O)c2ccco2)cc1)c1ccccc1`, the melting point fell in the range of 170 to 172 °C.

The compound `O=c1ccc2c(-c3ccccc3)nccc2[nH]1` registered a melting point of 261 to 263 °C. `Cc1cc(C2CC2)nc(N)n1` gave a melting point of 113 to 115 °C. `O=C(O)c1ccc(C(=O)Nc2cc3c4c(c2)CCCC4CCC3)nc1` showed a melting point of 252 to 253 °C. As to `CCOC(=O)CNC(=O)C1(CC)CCCCCCC1`, the melting point was 65 to 67 °C. Regarding `CC(C#N)NC(=O)NC(C)(C)C` (stereo not given), the melting point fell in the range of 161 to 163 °C. For `Cc1noc(C)c1-c1cn(Cc2ccccc2)c(=O)c2ccncc12` the value was 159 to 161 °C; for `CC1(C)CCc2c(N3CCOCC3)nc3sc4c(NCc5ccccn5)ncnc4c3c2C1`, 218 °C; for `Cc1nc[nH]c1CSCCN=C(NC#N)NCCCCCCCCN`, 122 to 124 °C.

`Cc1nonc1-n1cc(C(=O)O)c(=O)c2cc(F)c(N3CC[C@H](N)C3)c(F)c21` had a melting point of 169 to 170 °C. For `O=c1[nH]c2cc(Cl)ccc2c(O)c1-c1cccc(Oc2ccccn2)c1` the value was 269 to 271 °C; for `CC(C)(C)OC(=O)N(C(=N)NS(=O)(=O)C(F)(F)F)C(=O)OC(C)(C)C`, 114 to 115 °C; for `c1ccc(-c2cn3c(nc4ccccc43)s2)nc1`, 222 to 224 °C. The figure for `CCCc1c(OCc2cccn3c(=O)c(CC(=O)O)cnc23)ccc(C(C)=O)c1O` is 239 to 243 °C; for `O=C(Cc1ccccc1)N1C[C@@H]2SCCC(c3ccccc3)(c3ccccc3)[C@@H]2C1` (racemic) it is 210 °C; for `N#CC1=C(C2CCCC2)Nc2n[nH]cc2C1c1cccc(C#N)c1Br` (stereo not given) it is 247 °C. In turn, `N#Cc1ccc(CCc2ccc(OCc3ccc4ccccc4n3)cc2)cc1` had a melting point of 156 to 158 °C. `c1ccc(Nc2nc3c(s2)CCc2[nH]ncc2-3)nc1` gave a melting point of 297 to 299 °C. `COc1ccc(CN2CC(NC(=O)c3ccc(OCC=C(C)CCC=C(C)C)cc3)CN2Cc2ccc(OC)cc2)cc1` showed a melting point of 123 to 124 °C. `Cc1noc(CCCCCCCOc2ccc(C3=NCCO3)cc2)c1CCl` displayed a melting point of 103 to 104 °C. `COC(=O)c1ccc(C(=O)N2CCN(c3ncccc3N)CC2)cc1`: the melting point is 144 °C.

Take `CCOC(=O)c1c(N)c(Cl)cc2c1OCO2`: the melting point fell in the range of 77 to 78 °C. Take `COC(=O)c1cncn1C1c2ccccc2CCC1(C)C` (stereo not given): the melting point lay within 66 to 67.5 °C.

As for `Cc1cc(C)c2oc(S)nc2c1C`, the melting point lay in the range of 146 to 147 °C. On to `CC(C)C(=O)N[C@@H](CSC(=O)C(C)(C)C)C(=O)NCCSC(=O)C(C)(C)C`, for which the melting point was 106 to 108 °C.

Consider `O=C1CCc2cc(NCC(=O)N3CCC(Cc4ccc(F)cc4)CC3)ccc2N1`, for which the melting point was in the range of 197 to 200 °C. The figure for `CC(=O)SCC(Cc1ccccc1)C(=O)Nc1cc(C)cc(C(=O)O)c1` (stereo not given) is 160 to 161 °C. Consider `CC#CC(C)Oc1cc(N)c(Cl)cc1C(=O)O` (stereo not given), for which the melting point was in the range of 114 to 116 °C.

On to `Fc1cc(F)c(CN2CCNc3ncc(I)cc32)cc1F`, for which the melting point was 154 to 156 °C. For `Cc1cc(C)c2c(n1)[nH]c(=O)c1ccccc12` the value was 276 to 278 °C.

On to `CCCOc1ccc(C=CC(=O)c2c(O)cc(OC)cc2OC)cc1`, for which the melting point is 96.7 °C. Consider `O=C(CNC1=Nc2cccc3cccc1c23)NCCCn1ccnc1`, for which the melting point fell in the range of 145 to 146 °C. The figure for `N#CCc1cccc2c(-c3ccccc3Cl)nccc12` is 113 °C. For `Cn1cnnc1C(O)(c1ccc(Cl)cc1)c1ccc2c(c1)c(-c1cccc(Cl)c1)cc(=O)n2C` (stereo not given) the value was 182 °C; for `COc1ccc(Cc2nnc3c4ccccc4c(Nc4cccc(-c5nn[nH]n5)c4)nn23)cc1`, 292 to 293 °C; for `COc1ccc(Cn2cc(OCc3ccccc3)c(=O)cc2C(=O)NCCNCc2ccccc2)cc1`, 112 °C.

`CCc1noc(-c2cn(-c3ncc(Cl)cc3Cl)cn2)n1` had a melting point of 132 to 133 °C.

In turn, `COC(=O)CC(C)NC(=O)c1ccc(N2CCN(c3ccncc3)CC2)cc1` (stereo not given) registered a melting point of 130 to 132 °C. On to `CCCSc1ncc(C(=O)N[C@@H](C)C(=O)O)n1Cc1ccccc1Cl`, for which the melting point lay in the range of 173 to 176 °C. As to `COC(=O)c1scc(-c2ccccc2)c1S(=O)(=O)NC(=O)Nc1nc(OC)cc(OC)n1`, the melting point lay within 225 to 227 °C. For `COc1cc2c(cc1O)CCN(C(=O)c1ccccc1OC)C2=O`, the melting point was 199 to 200 °C. In the case of `CC#Cc1ccc(NC(=O)c2cccnc2NCc2ccc(=O)[nH]c2)cc1C(F)(F)F`, the melting point lay in the range of 211 to 218 °C.

For `CCNC(=O)n1nc(Oc2ncc(C(F)(F)F)cc2Cl)cc1C`, the melting point was 85 to 86 °C.

`Cc1ccc([N+](=O)[O-])c2c1CCC(C)O2` (stereo not given) displayed a melting point of 83 to 85 °C. `O=C(Nc1nccs1)c1c(C(F)(F)F)nc2cc(C(F)(F)F)ccc2c1O` came in with a melting point of 270 °C. `Clc1cc(-c2nnn[nH]2)nc(Cl)c1Cl` showed a melting point of 197 to 198 °C. `Cc1ccc(-c2nc3ccccc3c(=O)[nH]2)cc1` registered a melting point of 239 to 241 °C.

With `O=C(Oc1cc(O)ccn1)c1ccccc1`, the melting point lay in the range of 124 to 127 °C. The figure for `O=C(O)c1cc(Br)c(Cl)cc1O` is 208 to 213 °C; for `Nc1ccc(C(=O)N2CCOCC2)cc1[N+](=O)[O-]` it is 184 to 189 °C. For the compound `Cc1noc(NS(=O)(=O)c2sccc2Cc2ccccc2)c1Br`, the melting point fell in the range of 180 to 183 °C. For `CCc1cc(Nc2ccc(C(Cc3ccccc3)C(=O)O)cc2)n2nccc2n1` (stereo not given), the melting point was 195 to 197 °C. `CCCCCCCNC(=O)Nc1ccccc1C(=O)NC1CCN(Cc2ccccc2)CC1` yielded a melting point of 134 °C.

On to `O=C(Nc1ccc(C(F)(F)F)cc1)c1cc(-c2ccc(F)cc2F)ccc1O`, for which the melting point was 227 to 228 °C. For `Cn1c(C(F)(F)F)nc2c(OCc3ccccc3)cc(Br)cc21`, the melting point is 141 to 142 °C. The figure for `CCCn1c(=O)c2[nH]c(-c3ccc(C(=O)N(CC)CC)o3)nc2n(CCC)c1=O` is 247 to 250 °C. Consider `CCCCCS(=O)(=O)NC(=O)/C=C/c1ccc(OCCOC)cc1Oc1ncc(NC(C)=O)cc1C`, for which the melting point turned out to be 188 °C. The compound `CN1C(=O)C(F)N=C(c2ccccc2Cl)c2ccc(Cl)cc21` (stereo not given) registered a melting point of 204 to 205 °C. Compound `COC(=O)C1CSC(c2ccc(Oc3ccc(C)cc3O)cc2)N1` (stereo not given) came in with a melting point of 134 to 135 °C.

Compound `O=C(Nc1ccc(C(=O)N2CCc3cn[nH]c3-c3sccc32)cc1)c1ccccc1-c1ccccc1` came in with a melting point of 280 to 284 °C.

With `Cc1oc2nc3c(c(NC(=O)C(C)C)c2c1C)CCCC3`, the melting point is 245 to 246 °C. Turning to `Cc1cc(OCC(=O)O)cc(C)c1SCc1sc(-c2ccc(C(F)(F)F)cc2)nc1C`, the melting point lay within 184 to 185 °C. Regarding `Nc1ncnc2c1cnn2Cc1oc2ccc(Br)cc2c(=O)c1-c1ccccc1`, the melting point was in the range of 236 to 240 °C. `CNC(=O)C1(C)Oc2c(C)c(C)c(O)c(C)c2CC1OC` (stereo not given) had a melting point of 139 to 140 °C. Compound `CCOC(=O)c1ncn2c1cnc1ccccc12` returned a melting point of 195 to 196 °C. `CCOC(=O)/C=C(C)/C=C/C1=C(Br)CCC1` showed a melting point of 85 to 86 °C. On to `CCn1c(CCl)nc2c([N+](=O)[O-])cc(Br)cc21`, for which the melting point lay in the range of 154 to 155 °C. `FC(F)(F)/C(=C(\c1ccccc1)c1ccc(OCCN2CCOCC2)cc1)c1ccccc1` returned a melting point of 84 to 89 °C.

In turn, `O=Cc1ccccc1-c1nc2ccccc2o1` showed a melting point of 117 to 120 °C. As for `CCOC(=O)c1cnn(-c2ccccn2)c1N`, the melting point is 92 to 93 °C. With `CC(C(=O)O)c1ccc(N)cc1` (stereo not given), the melting point lay in the range of 125 to 129 °C. The figure for `CC(=O)c1ncccc1C(O)=NNC(=O)Nc1cc(F)cc(F)c1` is 79 to 82 °C.

Compound `CCn1c(=O)c2c(nc(/C=C/c3cc(OC)c(O)c(OC)c3)n2C)n(CC)c1=O` had a melting point of 226 °C. In turn, `COc1ccccc1CNc1ccc2cc(Nc3nc(C(F)(F)F)co3)ccc2n1` showed a melting point of 144 °C. For `COc1ccccc1C1C(=O)Nc2cc(C)c(Cl)cc21` (stereo not given), the melting point turned out to be 193 °C. Regarding `COc1ccc2c3c([nH]c2c1)C(=O)N=NC3=O`, the melting point was greater than 260 °C.

In the case of `CCCc1c(C(=O)C(C)C)c2ccc(C(N)=O)cc2n1Cc1c(Cl)cccc1Cl`, the melting point is 208 to 209 °C.

Turning to `CS(=O)(=O)Nc1ccccc1OCCCN1CCC(OC(c2ccccc2)c2ccccc2)CC1`, the melting point lay within 106 to 107 °C.

As to `CC(C)Nc1nc2cc(Cl)c(Cl)cc2[nH]1`, the melting point was in the range of 218 to 220 °C. `CCCCOc1ccc(Cc2nn(-c3ccccc3Cl)c(=S)o2)cc1` had a melting point of 69 °C. Compound `CNC(=O)COc1ccc2c(-c3ccccc3F)noc2c1Cl` yielded a melting point of 164 °C.

`COc1cc(C2OCCO2)cc(C#N)c1OC` had a melting point of 76.5 to 77.5 °C. `CCCSCCNC(=O)n1cc(F)c(=O)[nH]c1=O` gave a melting point of 112 to 114 °C.
